Laboratory results published in patent publication US20250306018A1, “METHODS FOR CHARACTERIZING INTERACTIONS BETWEEN ANALYTES” (Nautilus Subsidiary, Inc., priority 2021, published 2025).

Test system: serum proteins
Test: Binding of fluorescently-labeled detectable probes to a single-analyte array of serum protein conjugates, confocal fluorescent microscopy
Design: species or system human
Details: patterned array of serum protein conjugates
Description: A blood sample is collected from a human medical subject. A serum fraction containing serum proteins is purified from the blood sample via centrifugation of a whole blood sample obtained from the medical subject and collection of the resulting supernatant. The supernatant includes collected serum proteins as well as several impurities, including trace amounts of clotting factors, vitamins, cofactors, nucleic acids, triglycerides, cholesterols, electrolytes (e.g., Ca^2+, Mg^2+, Na^+, K^+, Fe^2+, etc.), trace amounts of non-human antigens (e.g, viral antigens), and trace amounts of the medical subject's prescribed pharmaceuticals. The fraction containing the extracted serum proteins is modified to incorporate a transcyclooctene (TCO) moiety at some of the amine-containing amino acid sidechain of the present proteins. Each modified serum protein is conjugated to a structured nucleic acid particle (SNAP) containing a methyltetrazine (mTz) attachment moiety via a TCO-mTz Click-type reaction to form a plurality of serum protein conjugates. Certain impurities are also conjugated to SNAPs due to cross-reactivity with functionalization reagents and/or methyltetrazine. […]
The patterned array of serum protein conjugates is characterized by cyclical binding of affinity reagents. […] Identities of serum proteins are determined for […] of addresses on the array to beyond a confidence level of 99.9%. […]

- polypeptide species bound by the detectable probe (addresses with identified serum albumin excluded): fewer polypeptide species
- binding affinity of the detectable probe for bound polypeptide species (judged by repeatability of observed binding): low degree of binding affinity
Substance: VEGF
